The values below come from patent publication US5661138A, “(o-Acyl-p-N-acylamino-phenyl)-O-phosphoethanolamines” (Clarion Pharmaceutical, Inc., priority 1996, dated 1997).

The subject of test [1] is PMA-induced inflammation in mouse ears. As to the kind of experiment: In Vivo Assay--Mouse Ear model, PMA-induced inflammation. Further details: species or system mouse (male CD-1). Conditions: concentration tested 5%, topical to ear, 6 hours; FIG. 1. The method, then:
A common in vivo model for the evaluation of anti-inflammatory agents is PMA-induced inflammation in mouse ears. This method is described in "Pharmacological Methods in the Control of Inflammation," Joseph Y. Chang and Alan J. Lewis (eds), Alan R. Liss, Inc., New York, pp 221-223 (1989). In this assay, edema, which is a characteristic of inflammation, is quantified by determining ear thickness or ear weight approximately 6 hours after applying PMA to the ear.
1. Mice: Male CD-1, 21-24 g (Product Number 3002) obtainable from Harlan Sprague Dawley, Indianapolis, Ind., USA.
a. Prepare 0.01% (w/v) PMA in a mixture of equal volumes of acetone and ethanol;
b. Prepare 0.01% (w/v) PMA and 5% (w/v) test compound in a mixture of equal volumes of acetone and ethanol;
c. Divide 12 mice into 4 groups of 3 mice each;
d. Treat the first group of mice by applying 20 μL of a mixture of equal volumes of acetone and ethanol (vehicle) to the left ear using a micropipetter;
e. Treat the second group of mice by applying 20 μL of PMA solution to the left ear;
f. Treat the other two groups of mice by applying 20 μL of PMA/test compound solution to the left ear;
g. Wait 6 hours and euthanize the mice in a CO2 chamber;
h. Cut the ears and punch out circles of 6-mm diameter; and
i. Measure the weight of three appropriate ear punches in the same group together.

For test [2], the system named is carrageenan-induced paw edema in the rat. The test can be described thus: In Vivo Assay--Rat Carrageenan-Induced Paw Edema. Set-up: species or system rat (male Sprague-Dawley). Conditions: intraperitoneal, 6 hours; FIG. 3. The source says:
The model, which provides a tool for investigating the effect of compounds on paw intimation, is described in the following reference: Bartlett, R. R., et al. (1993), "Effects of leflunomide on immune responses and models of inflammation," Springer Semin Immunopathol 14:381-394. It essentially consists of the following:
1. Rats: Male Sprague-Dawley, approximately 165 g obtainable from Harlan Sprague Dawley, Indianapolis, Ind., USA;
a. Measure the volume of the left hind paw by strain gauge/fluid immersion;
b. Inject 100 μL of 1% carrageenan in saline intradermally into the left hind foot pad;
c. Inject vehicles or test compounds dissolved in either saline (CPR-2015) or 50% saline and 50% ethanol (indomethacin, dexamethasone, and CPR-2014) intraperitoneally, placing 3-5 rats in each treatment group;
d. Six hours later, measure the volume of the left hind paw by strain gauge/fluid immersion;
e. Calculate average percent increase in paw volume for each treatment group.
(Carrageenan injected into the paw causes an acute inflammation.)

Test [3] relates to Mouse Macrophage RAW 264.7. The test can be described thus: In Vitro Chemiluminescence Assay: inhibition of respiratory burst in PMA-stimulated mouse macrophage RAW 264.7. It counts as cell-based. The source says:
The cells are capable of phagocytosis and undergo an oxidative burst in response to appropriate signals. Agents that inhibit the activation of these cell in vitro are therefore inhibitors of critical steps in inflammatory processes.
Activation of macrophages and other phagocytic cell types initiates a cascade of actions that include increased oxygen consumption (respiratory burst) and production of oxygen radicals. These events can be measured m a variety of ways, including chemiluminescence based on the addition of luminol (see M. A. Trush et al, (1978), The generation of chemiluminescence by phagocytic cells, Methods in Enzymology 56:462-494). Because chemiluminescence is induced by the increased production of oxygen radicals that are thought to be important in intracellular killing of bacteria, chemiluminescence has long been used as an index of phagocytic cell activity. In addition, oxygen radical production is associated with inflammatory responses and may have adverse consequences in non-infectiousinflammation. For this reason, macrophage activation is of critical importance in studies of the inflammatory process. Agents that reduce macrophage activation are likely to have utility as anti-inflammatory agents.
1. Cell line: Raw 264.7 (ATCC TIB-71, attachment dependent).
2. Culture medium: Dulbecco's Modified Eagle's Medium (DMEM) with 10% Fetal Bovine Serum (FBS).
3. Standard protocol for culturing cell lines: in T-75 or T-150 flasks; 37° C.; 95% air, 5% CO2; 100% humidity;
a. Cell line is passaged when approximately 80% confluent; with trypsin (1 mg/mL) and ethylenediaminetetraacetic acid (EDTA) (1 mM in Ca-Mg free Hank's balanced salt solution); at a 1:4 to 1:5 split;
b. All procedures are performed aseptically in a class II biological safety cabinet using standard BL-2 containment procedures. In order to prevent genetic drift in stock cell lines, fresh cultures are prepared at approximately monthly intervals with cells thawed from liquid nitrogen storage.
a. After cell passage, count cells with a hemacytometer;
b. Adjust cell concentration to approximately 1,000,000 cells per mL;
c. Suspend cells in DMEM lacking phenol red and without FBS;
d. Pipette 1 mL of cell suspension into a standard luminometer cuvette (12×75 mm), commercially obtainable from Analytical Luminescence Laboratories, San Diego, Calif., USA;
e. Add luminol to final concentration of 0.2 mM;
f. Add test compound dissolved in phosphate buffered saline (PBS) for final concentration levels ranging from 0 to 10 μM;
g. Add 100 nanograms of phorbol myristate acetate (PMA): and
h. Wait 1 minute and read photo counts (i.e., luminescence) on a Monolight 2010 luminometer available from Analytical Luminescence Laboratories, San Diego.
Background--no test compound present; no PMA present;
Control--no test compound present;
Calculate: [formula] where L is luminescence. 6.

The subject of test [4] is TNB-induced inflammation in rat colon. As to the kind of experiment: In Vivo Assay--Rat Ulcerative Colitis Model (TNB-induced). Further details: species or system rat (male Sprague-Dawley). The settings on record: 150 mg/kg, rectal, once a day for 5 days; FIG. 2. The source says:
The model described in this section provides a tool for investigating the effect of compounds in colonic intimation. This model and the experimental methods are described in the following reference: Luck, Michael S. and Bass, Paul, (1993), "Effect of Epidermal Growth Factor on Experimental Colitis in the Rat," J. Pharmacol. Exp. Therap. 264:984-990. In this assay, inflammatory lesions in the rat colon are induced by the intracolonic administration of 2,4,6-trinitrobenzenesulfonic acid.
1. Rats: Male Sprague-Dawley, 185-195 g obtainable from Harlan Sprague Dawley, Indianapolis, Ind., USA;
a. Prepare 100 mg/mL 5-aminosalicylic acid (5-ASA), 50 mg/mL CPR-2015, and 150 mg/mL CPR-2015 in saline;
b. Divide 34 rats into 4 groups of 8 rats each and one group of two rats;
c. Leave the group with two rats completely untreated;
d. Treat the other four groups of rats with 200 μl of Saline, 500 μl of 100 mg/mL 5-ASA, 200 μl of 50 mg/mL CPR-2015, or 200 μl of 150 mg/mL CPR-2015. These treatments are administered rectally with an 8-cm catheter;
e. After one hour, treat the above four groups of rats rectally with 500 μl of 100 mg/mL 2,4,6-trinitrobenzenesulfonic acid (TNB) in 30% ethanol and 70% saline;
f. Repeat the treatments described in paragraph 2(d) once a day for a total of 5 days;
g. On the 6th day, euthanize the rates in a CO2 chamber; and
h. […]

In general, inhibition refers to the relative decrease from the control value, in per cent. A lower inhibition goes with little suppression.

Take `CCCCCCCCCCCCCCCC(=O)Nc1ccc(O)c(C(C)=O)c1` [CPR-2014, 1-(5-hexadecanamido-2-hydroxy-phenyl)-ethanone]: in test [1], the “inhibition of PMA-induced inflammation in mouse ear” value is reported as “partially inhibited”. Moreover, the “inhibition of carrageenan-induced edema in rat paw” value in test [2] is given as “marked inhibition”.

In turn, `CCCCCCCCCCCCCCCC(=O)Nc1ccc(OP(=O)([O-])OCC[N+](C)(C)C)c(C(C)=O)c1` [CPR-2015, (o-acetyl-p-N-hexadecanamido-phenyl)-O-phosphocholine] came in with an inhibition at 0.1 µM in test [3] (Mus musculus, RAW264.7, Concentration 0.1 µM, PMA-stimulated RAW 264.7, luminol chemiluminescence) of 13%. The molecule also showed an inhibition at 0.3 µM in test [3] (Mus musculus, RAW264.7, Concentration 0.3 µM, PMA-stimulated RAW 264.7, luminol chemiluminescence) of 63%. The molecule also came in with an inhibition at 1 µM in test [3] (Mus musculus, RAW264.7, Concentration 1 µM, PMA-stimulated RAW 264.7, luminol chemiluminescence) of 94%. Moreover, the inhibition at 3 µM in test [3] (Mus musculus, RAW264.7, Concentration 3 µM, PMA-stimulated RAW 264.7, luminol chemiluminescence) stood at 97%. Moreover, the inhibition at 10 µM in test [3] (Mus musculus, RAW264.7, Concentration 10 µM, PMA-stimulated RAW 264.7, luminol chemiluminescence) turned out to be 99%. Besides, in test [3] (at concentrations above 0.3 μM), the “inhibition of PMA-induced macrophage activation” value was “marked inhibition”. In test [1], the “inhibition of PMA-induced inflammation in mouse ear” value is “completely inhibited”. Besides, in test [4], the “inhibition of TNB-induced inflammation in rat colon” value is “marked inhibition”. Besides, the “inhibition of carrageenan-induced edema in rat paw” value in test [2] was “marked inhibition”.
